We go through three compounds from US20050065208A1, “Benzofuranes and their use in the treatment of atrial fibrillation” (priority 2001, published 2005).

Where two headings read alike, the source gives them in different places.

Experiment [1] addresses T1, IKs, slow component of the delayed rectifier K-current (Homo sapiens, UniProt P51787). Further details: key: Yes: The compound has been demonstrated to inhibit the particular current (reference within parenthesis).; No: The compound has been demonstrated to not inhibit the particular current (reference within parenthesis).; U: No data regarding interaction of the compound with the particular current has been found in the literature. The note with it: Table 2, literature; cited from earlier work.

Experiment [2] relates to IK1, inward rectifier K-current. Also on record: key: Yes: The compound has been demonstrated to inhibit the particular current (reference within parenthesis).; No: The compound has been demonstrated to not inhibit the particular current (reference within parenthesis).; U: No data regarding interaction of the compound with the particular current has been found in the literature. The note with it: Table 2, literature; cited from earlier work.

In experiment [3] the target is T2, IK(ACh), AcetylCholine activated K-current (Homo sapiens, UniProt P48544+P48549).
T2 construct: electrophysiology technique applied to cardiomyocyte cultures; endogenous in cells
T2 sequence (P48549 1-501): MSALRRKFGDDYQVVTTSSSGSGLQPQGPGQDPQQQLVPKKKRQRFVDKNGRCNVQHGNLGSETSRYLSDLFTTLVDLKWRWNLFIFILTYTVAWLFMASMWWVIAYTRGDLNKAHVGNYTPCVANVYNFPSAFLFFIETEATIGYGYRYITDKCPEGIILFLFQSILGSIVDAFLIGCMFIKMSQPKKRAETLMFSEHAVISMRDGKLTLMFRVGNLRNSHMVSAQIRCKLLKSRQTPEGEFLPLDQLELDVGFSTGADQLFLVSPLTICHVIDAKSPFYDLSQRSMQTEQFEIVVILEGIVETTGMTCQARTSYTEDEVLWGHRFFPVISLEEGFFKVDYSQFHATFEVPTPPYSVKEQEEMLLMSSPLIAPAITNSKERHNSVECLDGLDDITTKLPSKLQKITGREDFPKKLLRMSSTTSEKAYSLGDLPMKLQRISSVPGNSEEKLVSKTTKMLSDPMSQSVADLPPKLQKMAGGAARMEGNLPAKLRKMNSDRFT
T2 sequence (P48544 1-419): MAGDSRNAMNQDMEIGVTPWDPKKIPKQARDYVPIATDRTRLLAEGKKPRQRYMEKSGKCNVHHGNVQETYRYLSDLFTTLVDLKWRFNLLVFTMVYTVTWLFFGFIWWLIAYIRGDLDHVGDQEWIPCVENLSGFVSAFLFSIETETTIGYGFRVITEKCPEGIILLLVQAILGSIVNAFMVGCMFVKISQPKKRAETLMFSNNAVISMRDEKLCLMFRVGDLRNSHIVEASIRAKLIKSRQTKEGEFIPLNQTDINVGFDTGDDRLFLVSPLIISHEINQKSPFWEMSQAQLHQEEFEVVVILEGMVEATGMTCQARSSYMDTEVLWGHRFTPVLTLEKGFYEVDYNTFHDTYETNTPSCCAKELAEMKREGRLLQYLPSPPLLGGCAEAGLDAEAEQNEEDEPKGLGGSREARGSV
Further details: key to Blocking activity on IK(ACh): Yes: The compound has been demonstrated to inhibit the particular current (reference within parenthesis).; No: The compound has been demonstrated to not inhibit the particular current (reference within parenthesis).; U: No data regarding interaction of the compound with the particular current has been found in the literature. The note with it: cited from earlier work.

The target of experiment [4] is T3, IK(ATP), ATP-sensitive K-current (Homo sapiens, UniProt Q14654).
T3 construct: electrophysiology technique applied to cardiomyocyte cultures; endogenous in cells; current induced with dinitrophenole
Further details: key: Yes: The compound has been demonstrated to inhibit the particular current (reference within parenthesis).; No: The compound has been demonstrated to not inhibit the particular current (reference within parenthesis).; U: No data regarding interaction of the compound with the particular current has been found in the literature. The note with it: Table 2, literature; cited from earlier work.

Experiment [5] addresses T4, IK(Ado), adenosine activated K-current (Homo sapiens, UniProt P48544+P48549).
T4 construct: electrophysiology technique applied to cardiomyocyte cultures; endogenous in cells
T4 sequence (P48549 1-501): T2 sequence (P48549 1-501)
T4 sequence (P48544 1-419): T2 sequence (P48544 1-419)
Further details: key to Blocking activity on IK(Ado): Yes: The compound has been demonstrated to inhibit the particular current (reference within parenthesis).; No: The compound has been demonstrated to not inhibit the particular current (reference within parenthesis).; U: No data regarding interaction of the compound with the particular current has been found in the literature. To be noted: cited from earlier work.

In experiment [6] the target is T5, INa, depolarizing Na-current (Homo sapiens, UniProt Q14524). Also on record: key: Yes: The compound has been demonstrated to inhibit the particular current (reference within parenthesis).; No: The compound has been demonstrated to not inhibit the particular current (reference within parenthesis).; U: No data regarding interaction of the compound with the particular current has been found in the literature. The note with it: Table 2, literature; cited from earlier work.

In experiment [7] the test system is triiodthyronine (T3)-signalling. Briefly: Antagonism of T3-signalling action in cells. Format: cell-based. To be noted: manuscript in preparation.
Experiment [8] concerns IK1, inward rectifier K-current. Briefly: Voltage clamp: inward rectifier K-current. It is filed as cell-based. Also on record: key: Yes: The compound has been demonstrated to inhibit the particular current (reference within parenthesis).; No: The compound has been demonstrated to not inhibit the particular current (reference within parenthesis).; U: No data regarding interaction of the compound with the particular current has been found in the literature. The note with it: Table 2, own voltage clamp data. The text has this:
(§1) Results from voltage clamp experiments with compounds of the invention on other ion-currents than IK(Ado), IK(ACh) and IK(ATP) are included in Table 2.

Experiment [9] concerns the target T5, INa, depolarizing Na-current. Briefly: Voltage clamp: depolarizing Na-current. Format: cell-based. Also on record: key: Yes: The compound has been demonstrated to inhibit the particular current (reference within parenthesis).; No: The compound has been demonstrated to not inhibit the particular current (reference within parenthesis).; U: No data regarding interaction of the compound with the particular current has been found in the literature. To be noted: Table 2, own voltage clamp data.
Text: as §1

Experiment [10] concerns Ito, transient outward K-current. Briefly: Voltage clamp: transient outward K-current. Format: cell-based. Also on record: key: Yes: The compound has been demonstrated to inhibit the particular current (reference within parenthesis).; No: The compound has been demonstrated to not inhibit the particular current (reference within parenthesis).; U: No data regarding interaction of the compound with the particular current has been found in the literature. The note with it: Table 2, own voltage clamp data.
Text: as §1

In experiment [11] the target is T1, IKs, slow component of the delayed rectifier K-current. Briefly: Voltage clamp: slow component of the delayed rectifier K-current. Format: cell-based. Also on record: key: Yes: The compound has been demonstrated to inhibit the particular current (reference within parenthesis).; No: The compound has been demonstrated to not inhibit the particular current (reference within parenthesis).; U: No data regarding interaction of the compound with the particular current has been found in the literature. To be noted: Table 2, own voltage clamp data.
Text: as §1

Experiment [12] deals with T2, IK(ACh), AcetylCholine activated K-current. Briefly: Voltage clamp on cardiomyocyte cultures: inhibition of K-current induced by ACh or carbachol. It is filed as cell-based. To be noted: for Blocking activity on IK(ACh): Table 2, own voltage clamp data; for inhibition at 50 µM: read-out: Inhibition of IK (ACh) (Induced by ACh or Carbachol), % Inh. Further details: key to Blocking activity on IK(ACh): Yes: The compound has been demonstrated to inhibit the particular current (reference within parenthesis).; No: The compound has been demonstrated to not inhibit the particular current (reference within parenthesis).; U: No data regarding interaction of the compound with the particular current has been found in the literature. The text has this:
(§2) In the present invention acute and chronic effects of various compounds have been investigated by using electrophysiology technique applied to cardiomyocyte cultures.
(§3) The inhibitory effects occur within seconds after induction of the current with ACh, Ado or dinitrophenole (DNP reduces intracellular ATP). The acute inhibitory effects caused by the compounds of the present invention on these K-currents in cardiac muscle tissue had not previously been discovered. The reasons for this include the fact that these ligand activated K-currents (IK(Ado), IK(ACh) and IK(ATP)) are preferentially active in the atrial cardiomyocytes (Workman A J et al. Cardiovasc Res 1999 September;43(4):974-84; Koumi S-I, and Wasserstorm A. American Journal of Physiology 266[35], H1812-H1821. 1994), while previous studies have been carried out with tissue from cardiac ventricles. Furthermore, IK(Ado) and IK(ACh) must first be induced via the M2 or A1 receptor (with ACh and Ado respectively) before any inhibition can be observed. Without any agonist at the extracellular site of the membrane these ligand-gated channels probably have only minor roles in shaping repolarization but, when activated by extracellular acetylcholine or adenosine, they can substantially shorten action potential duration in the atrium (Tristani-Firouzi M et al. Am J Med 2001 January; 110(1):50-9).
(§4) The following Table 1 illustrates the potency (IC50-values) of compounds of formulae I and II compared with other anti-arrhythmic drugs to inhibit the transmembrane currents IK(Ado) and IK(ACh) after stimulation of the currents with Adenosine or Acetylcholine (or Carbachol).

In experiment [13] the target is T3, IK(ATP), ATP-sensitive K-current. Kind of experiment: Voltage clamp on cardiomyocyte cultures: inhibition of ATP-sensitive K-current (induced with DNP). Also on record: key: Yes: The compound has been demonstrated to inhibit the particular current (reference within parenthesis).; No: The compound has been demonstrated to not inhibit the particular current (reference within parenthesis).; U: No data regarding interaction of the compound with the particular current has been found in the literature. The note with it: Table 2, own voltage clamp data. Format: cell-based.
Text: as §2, §3

For experiment [14], the target named is T4, IK(Ado), adenosine activated K-current. Briefly: Voltage clamp on cardiomyocyte cultures: inhibition of adenosine-induced K-current. It is filed as cell-based. Also on record: key to Blocking activity on IK(Ado): Yes: The compound has been demonstrated to inhibit the particular current (reference within parenthesis).; No: The compound has been demonstrated to not inhibit the particular current (reference within parenthesis).; U: No data regarding interaction of the compound with the particular current has been found in the literature. To be noted: for Blocking activity on IK(Ado): Table 2, own voltage clamp data; for inhibition at 50 µM: read-out: Inhibition of IK (Ado) Induced by Adenosine, % Inh.
Text: as §2, §3, §4

T3 sequence (Q14654 whole entry): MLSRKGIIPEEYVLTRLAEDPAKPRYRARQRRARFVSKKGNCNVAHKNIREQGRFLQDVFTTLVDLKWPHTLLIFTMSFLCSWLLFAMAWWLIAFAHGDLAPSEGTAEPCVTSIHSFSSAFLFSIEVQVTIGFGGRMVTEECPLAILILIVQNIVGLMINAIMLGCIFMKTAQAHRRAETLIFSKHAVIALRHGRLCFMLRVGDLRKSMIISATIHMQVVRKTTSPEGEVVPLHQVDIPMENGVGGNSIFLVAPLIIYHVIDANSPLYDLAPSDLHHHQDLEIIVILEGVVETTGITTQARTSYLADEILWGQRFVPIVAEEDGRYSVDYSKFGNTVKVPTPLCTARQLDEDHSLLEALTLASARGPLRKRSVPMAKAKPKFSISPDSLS
T3 sequence (O60706 whole entry partner): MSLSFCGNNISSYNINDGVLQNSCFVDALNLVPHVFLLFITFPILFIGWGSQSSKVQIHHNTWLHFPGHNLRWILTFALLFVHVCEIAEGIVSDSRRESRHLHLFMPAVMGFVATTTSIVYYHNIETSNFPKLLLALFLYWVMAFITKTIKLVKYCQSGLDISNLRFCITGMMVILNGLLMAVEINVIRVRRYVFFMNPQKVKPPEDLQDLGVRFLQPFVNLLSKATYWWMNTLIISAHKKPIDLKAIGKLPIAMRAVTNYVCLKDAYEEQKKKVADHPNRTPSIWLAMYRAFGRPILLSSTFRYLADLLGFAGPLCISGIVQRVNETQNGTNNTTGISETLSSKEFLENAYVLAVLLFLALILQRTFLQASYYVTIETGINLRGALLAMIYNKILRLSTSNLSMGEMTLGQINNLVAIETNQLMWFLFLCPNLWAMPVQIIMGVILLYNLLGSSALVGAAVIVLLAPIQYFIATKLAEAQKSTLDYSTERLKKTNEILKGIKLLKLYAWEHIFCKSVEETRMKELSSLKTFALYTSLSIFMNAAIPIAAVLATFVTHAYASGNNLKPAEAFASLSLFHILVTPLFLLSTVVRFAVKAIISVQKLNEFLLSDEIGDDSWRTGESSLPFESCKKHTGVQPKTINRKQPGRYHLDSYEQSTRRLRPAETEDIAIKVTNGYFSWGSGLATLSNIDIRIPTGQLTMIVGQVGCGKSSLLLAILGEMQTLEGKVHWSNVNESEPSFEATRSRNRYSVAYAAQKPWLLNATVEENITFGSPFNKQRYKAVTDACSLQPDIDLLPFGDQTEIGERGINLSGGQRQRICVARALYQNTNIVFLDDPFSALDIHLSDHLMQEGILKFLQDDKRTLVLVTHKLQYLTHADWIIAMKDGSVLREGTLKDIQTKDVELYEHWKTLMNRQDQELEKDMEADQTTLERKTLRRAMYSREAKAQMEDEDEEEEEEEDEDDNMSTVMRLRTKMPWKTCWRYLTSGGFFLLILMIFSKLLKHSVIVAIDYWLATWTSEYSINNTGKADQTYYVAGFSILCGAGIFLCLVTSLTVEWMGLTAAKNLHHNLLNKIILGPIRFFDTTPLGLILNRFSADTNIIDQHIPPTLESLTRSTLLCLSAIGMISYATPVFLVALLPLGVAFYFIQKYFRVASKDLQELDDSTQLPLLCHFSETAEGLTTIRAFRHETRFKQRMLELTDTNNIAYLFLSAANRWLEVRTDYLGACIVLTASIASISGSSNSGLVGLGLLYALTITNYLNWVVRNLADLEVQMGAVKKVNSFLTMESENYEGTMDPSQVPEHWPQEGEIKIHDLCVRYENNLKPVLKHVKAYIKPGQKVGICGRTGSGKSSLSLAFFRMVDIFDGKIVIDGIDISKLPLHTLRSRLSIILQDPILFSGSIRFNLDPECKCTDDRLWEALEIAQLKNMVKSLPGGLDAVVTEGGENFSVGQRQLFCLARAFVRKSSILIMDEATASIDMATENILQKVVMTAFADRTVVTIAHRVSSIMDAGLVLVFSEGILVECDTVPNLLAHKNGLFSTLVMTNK
T5 sequence (Q14524 whole entry): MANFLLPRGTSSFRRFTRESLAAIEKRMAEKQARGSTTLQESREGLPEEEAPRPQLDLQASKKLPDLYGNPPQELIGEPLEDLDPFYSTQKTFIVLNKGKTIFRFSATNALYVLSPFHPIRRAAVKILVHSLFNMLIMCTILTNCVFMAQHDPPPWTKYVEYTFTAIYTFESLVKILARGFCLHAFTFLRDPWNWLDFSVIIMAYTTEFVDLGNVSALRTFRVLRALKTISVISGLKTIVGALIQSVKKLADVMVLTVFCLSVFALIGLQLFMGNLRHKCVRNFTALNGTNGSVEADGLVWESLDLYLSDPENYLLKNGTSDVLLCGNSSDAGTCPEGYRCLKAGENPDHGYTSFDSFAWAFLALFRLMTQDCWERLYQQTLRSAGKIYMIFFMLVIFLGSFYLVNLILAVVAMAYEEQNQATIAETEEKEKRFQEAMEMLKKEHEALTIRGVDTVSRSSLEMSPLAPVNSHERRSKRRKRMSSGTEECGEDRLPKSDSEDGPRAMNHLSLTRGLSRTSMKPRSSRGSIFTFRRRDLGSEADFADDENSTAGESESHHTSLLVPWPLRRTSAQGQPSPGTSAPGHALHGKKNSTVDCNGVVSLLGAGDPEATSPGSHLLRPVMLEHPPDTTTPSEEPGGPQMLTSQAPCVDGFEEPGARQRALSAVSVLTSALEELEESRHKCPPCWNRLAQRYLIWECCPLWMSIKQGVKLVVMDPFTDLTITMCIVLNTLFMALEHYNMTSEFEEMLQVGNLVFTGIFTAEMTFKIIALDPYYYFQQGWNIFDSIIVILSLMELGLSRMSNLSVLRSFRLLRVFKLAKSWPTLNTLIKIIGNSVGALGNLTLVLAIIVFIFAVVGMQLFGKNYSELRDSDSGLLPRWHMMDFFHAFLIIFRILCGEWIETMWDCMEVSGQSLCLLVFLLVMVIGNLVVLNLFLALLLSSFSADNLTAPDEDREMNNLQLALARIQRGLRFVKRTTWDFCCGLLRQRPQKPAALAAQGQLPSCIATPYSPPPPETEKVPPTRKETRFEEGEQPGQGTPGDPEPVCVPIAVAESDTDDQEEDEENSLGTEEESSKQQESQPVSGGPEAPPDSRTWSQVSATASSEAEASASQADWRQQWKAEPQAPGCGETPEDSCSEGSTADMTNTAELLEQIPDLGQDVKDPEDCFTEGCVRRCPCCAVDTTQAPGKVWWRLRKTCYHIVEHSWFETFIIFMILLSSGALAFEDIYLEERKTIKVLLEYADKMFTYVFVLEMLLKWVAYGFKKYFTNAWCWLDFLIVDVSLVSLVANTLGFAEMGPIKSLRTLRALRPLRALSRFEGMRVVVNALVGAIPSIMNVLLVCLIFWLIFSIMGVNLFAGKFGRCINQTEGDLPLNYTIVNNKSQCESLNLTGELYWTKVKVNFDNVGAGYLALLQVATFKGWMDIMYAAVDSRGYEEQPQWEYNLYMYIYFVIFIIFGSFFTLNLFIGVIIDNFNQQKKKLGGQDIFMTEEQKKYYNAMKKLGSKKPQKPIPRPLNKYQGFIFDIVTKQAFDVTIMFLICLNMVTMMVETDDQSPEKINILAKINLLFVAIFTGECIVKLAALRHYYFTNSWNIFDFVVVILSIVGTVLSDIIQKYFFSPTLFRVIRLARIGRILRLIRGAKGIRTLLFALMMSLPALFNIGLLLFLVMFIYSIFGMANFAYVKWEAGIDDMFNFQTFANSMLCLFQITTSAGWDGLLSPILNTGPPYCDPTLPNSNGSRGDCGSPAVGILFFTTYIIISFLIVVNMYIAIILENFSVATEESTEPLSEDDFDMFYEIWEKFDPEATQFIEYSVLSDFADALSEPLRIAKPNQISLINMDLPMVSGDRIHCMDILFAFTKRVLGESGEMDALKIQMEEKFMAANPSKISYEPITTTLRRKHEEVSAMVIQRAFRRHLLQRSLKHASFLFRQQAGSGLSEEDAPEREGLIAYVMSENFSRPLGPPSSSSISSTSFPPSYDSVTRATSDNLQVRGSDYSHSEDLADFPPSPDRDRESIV

As a reminder, the IC50 is the concentration that inhibits the measured activity by half. With `CCCCc1oc2ccccc2c1C(=O)c1cc(I)c(OCCN(CC)CC)c(I)c1` [Amiodarone], the “Blocking activity on IKs” value in experiment [1] is “Yes”. In addition, the “Blocking activity on IK1” value in experiment [2] was “Yes”. Also, in experiment [3] (Table 2, literature), the “Blocking activity on IK(ACh)” value was “Yes”. Also, in [3] (Watanabe et al.), the “Block of ligand-gated current IK(ACh), in words” value is “does block”. Besides, the IC50 in [3] (current induced by ACh or carbachol, literature value, read-out: Inhibition of IK (ACh) (Induced by ACh or Carbachol) (IC50)) was 2000 nM; in experiment [5] (current induced by adenosine, literature value, read-out: Inhibition of IK (Ado) Induced by Adenosine (IC50)), 2000 nM. The “Blocking activity on IK(ATP)” value in experiment [4] is given as “Yes”. Further, in [5] (Table 2, literature), the “Blocking activity on IK(Ado)” value was “Yes”. The “Block of ligand-gated current IK(Ado), in words” value in experiment [5] (Watanabe et al.) is recorded as “does block”. Besides, the “Blocking activity on INa” value in [6] is recorded as “Yes”. In [7], the “Antagonism of triiodthyronine (T3)-signalling action in cells” value was “antagonize”.
By inhibition is commonly meant the drop in the measured response relative to a control, in per cent. In the case of `Cc1oc2ccccc2c1Cc1cc(C(C)C)c(OCC(=O)O)c(C(C)C)c1` [Example E4, 2-methyl-3-(3,5-diisopropyl-4-carboxymethoxybenzyl)benzofuran], the “Blocking activity on IK1” value in [8] is reported as “No”. In addition, in [9], the “Blocking activity on INa” value is “No”. Also, the “Blocking activity on Ito” value in experiment [10] is listed as “No”. Moreover, in experiment [11], the “Blocking activity on IKs” value is recorded as “No”. Also, in experiment [12], the “Blocking activity on IK(ACh)” value is on record as “Yes” and the inhibition at 50 µM came to 100%. Moreover, the “Blocking activity on IK(ATP)” value in experiment [13] was “Yes”. Also, in experiment [14], the “Blocking activity on IK(Ado)” value is recorded as “Yes” and the inhibition at 50 µM stood at 100%.
Regarding `Cc1oc2ccccc2c1Cc1cc(I)c(OCC(=O)O)c(I)c1` [Example E6, 2-methyl-3-(3,5-diiodo-4-carboxymethoxy-benzyl)benzofuran], in [8], the “Blocking activity on IK1” value is listed as “No”. In addition, in experiment [9], the “Blocking activity on INa” value is “No”. In addition, the “Blocking activity on Ito” value in [10] is “No”. For the same compound, the “Blocking activity on IKs” value in experiment [11] is “No”. In addition, in [12], the “Blocking activity on IK(ACh)” value is listed as “Yes” and the inhibition at 50 µM is 100%. Also, the “Blocking activity on IK(ATP)” value in [13] is listed as “Yes”. In experiment [14], the “Blocking activity on IK(Ado)” value is “Yes” and the inhibition at 50 µM came out at 100%.
